Calls of active or inactive are those of the source.
Assays:
[1] = target: DNA dC->dU-editing enzyme APOBEC-3A (Homo sapiens, UniProt P31941); assay: SAR analysis of small molecule inhibitors of APOBEC3A DNA Deaminase via a fluorescence-based single-stranded DNA deaminase assay.; assay type: functional; conditions: read-out: IC50_Mean
[2] = target: DNA dC->dU-editing enzyme APOBEC-3G (Homo sapiens, UniProt Q9HC16); assay: APOBEC3G deaminase inhibitors, SAR follow-up, biochemical, fluorescence, single-stranded DNA substrate (AID 602136); assay type: functional; conditions: read-out: IC50_Mean
[3] = target: Dual specificity protein kinase CLK4 (Homo sapiens, UniProt Q9HAZ1); assay type: functional
[4] = target: Serine/threonine-protein kinase pim-1 (Homo sapiens, UniProt P11309); assay type: functional
[5] = target: Interleukin-1 receptor-associated kinase 4 (Homo sapiens, UniProt Q9NWZ3); assay type: functional
[6] = target: cAMP-dependent protein kinase catalytic subunit alpha (Homo sapiens, UniProt P17612); assay type: functional
[7] = target: Cell division cycle 7-related protein kinase (Homo sapiens, UniProt O00311); assay type: functional;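 note: value obtained from a kinome-wide kinase panel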
[8] = target: Glycogen synthase kinase-3 beta (Homo sapiens, UniProt P49841); assay type: functional;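 note: value comes from a broad kinome profiling panel, with GSK3B as the panel member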
[9] = target: MAP kinase-interacting serine/threonine-protein kinase 2 (Homo sapiens, UniProt Q9HBH9); assay type: functional
[10] = target: Homeodomain-interacting protein kinase 2 (Homo sapiens, UniProt Q9H2X6); assay type: functional;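 note: measured within a kinome-wide kinase profiling panel, HIPK2 being one panel member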
[11] = target: Mitogen-activated protein kinase kinase kinase kinase 4 (Homo sapiens, UniProt O95819); assay type: functional
[12] = target: Serine/threonine-protein kinase Chk1 (Homo sapiens, UniProt O14757); assay type: functional;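 note: measured as one member of a kinome-wide kinase profiling panel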
Aurora kinase A = Aurora kinase A (Homo sapiens, UniProt O14965); assay type: functional;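 note: value from the Navigating the Kinome kinase panel profiling, panel entry STK6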
[13] = target: T1, Sentrin-specific protease 8 (Homo sapiens, UniProt Q96LD8); assay: SENP8 protease inhibitors, SAR follow-up, biochemical, luminescence (AID 504501); assay type: functional
T1 sequence (Q96LD8 whole entry): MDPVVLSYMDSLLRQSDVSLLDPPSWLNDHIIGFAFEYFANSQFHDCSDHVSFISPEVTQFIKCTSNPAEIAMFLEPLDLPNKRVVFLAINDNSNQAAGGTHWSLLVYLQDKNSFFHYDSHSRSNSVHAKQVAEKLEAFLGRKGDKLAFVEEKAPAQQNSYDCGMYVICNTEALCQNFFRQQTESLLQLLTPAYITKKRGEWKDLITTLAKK

[14] = target: T1, Sentrin-specific protease 8; assay: SENP8 protease inhibitors, SAR follow-up, biochemical, luminescence, set 2 (AID 588601); assay type: functional
[15] = target: T2, Sentrin-specific protease 7 (Homo sapiens, UniProt Q9BQF6); assay: SENP7 protease inhibitors, SAR follow-up, biochemical, luminescence, set 2 (AID 588600); assay type: functional
T2 sequence (Q9BQF6 whole entry): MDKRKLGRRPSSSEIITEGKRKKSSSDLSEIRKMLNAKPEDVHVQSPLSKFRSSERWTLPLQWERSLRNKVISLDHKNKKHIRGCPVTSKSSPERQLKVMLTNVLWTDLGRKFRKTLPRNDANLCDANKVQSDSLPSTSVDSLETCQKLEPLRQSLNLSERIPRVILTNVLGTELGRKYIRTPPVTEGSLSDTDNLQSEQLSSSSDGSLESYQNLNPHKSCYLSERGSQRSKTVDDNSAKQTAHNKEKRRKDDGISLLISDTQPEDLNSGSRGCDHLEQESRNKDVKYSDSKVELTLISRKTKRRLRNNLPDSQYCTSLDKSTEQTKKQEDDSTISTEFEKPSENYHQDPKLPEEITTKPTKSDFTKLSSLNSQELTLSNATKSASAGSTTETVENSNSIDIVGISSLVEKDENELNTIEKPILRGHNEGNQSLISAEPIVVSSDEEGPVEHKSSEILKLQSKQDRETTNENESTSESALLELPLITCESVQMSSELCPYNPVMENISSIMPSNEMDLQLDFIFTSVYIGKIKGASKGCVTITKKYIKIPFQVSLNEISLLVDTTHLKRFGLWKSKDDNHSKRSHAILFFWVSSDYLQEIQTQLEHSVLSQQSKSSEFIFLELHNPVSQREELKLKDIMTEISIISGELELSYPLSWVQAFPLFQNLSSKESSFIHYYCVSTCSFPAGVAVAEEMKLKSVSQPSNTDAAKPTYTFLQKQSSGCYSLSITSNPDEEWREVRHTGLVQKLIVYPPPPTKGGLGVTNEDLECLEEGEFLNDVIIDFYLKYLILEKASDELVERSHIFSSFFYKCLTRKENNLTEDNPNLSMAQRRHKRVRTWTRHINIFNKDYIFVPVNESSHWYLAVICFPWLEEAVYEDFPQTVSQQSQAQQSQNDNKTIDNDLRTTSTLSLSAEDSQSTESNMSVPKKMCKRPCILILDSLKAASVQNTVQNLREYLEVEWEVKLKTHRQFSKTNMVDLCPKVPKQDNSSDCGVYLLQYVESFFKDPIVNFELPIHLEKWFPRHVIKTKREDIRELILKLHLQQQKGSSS

Caspase-3 [16] = target: T3, Caspase-3 (Homo sapiens, UniProt P42574); assay: SAR Analysis of small molecule inhibitors of Sentrin-specific proteases (SENPs) using a Caspase-3 Selectivity assay. [Related pubchem assays (depositor defined):AID2540, AID2599, AID434973, AID489001]; assay type: functional
T3 sequence (P42574 whole entry): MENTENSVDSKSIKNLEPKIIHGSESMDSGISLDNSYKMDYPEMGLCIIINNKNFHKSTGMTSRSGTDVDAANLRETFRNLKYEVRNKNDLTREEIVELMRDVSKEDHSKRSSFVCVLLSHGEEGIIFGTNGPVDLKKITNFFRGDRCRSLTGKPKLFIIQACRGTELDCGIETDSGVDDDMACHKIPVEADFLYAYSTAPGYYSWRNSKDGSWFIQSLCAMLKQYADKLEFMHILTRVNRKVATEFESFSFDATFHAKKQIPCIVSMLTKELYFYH

[17] = target: T2, Sentrin-specific protease 7; assay: SENP7 protease inhibitors, SAR follow-up, biochemical, luminescence (AID 504497); assay type: functional
Caspase-3 [18] = target: T3, Caspase-3; assay: caspase-3 inhibitors as off-family protease, SAR follow-up, selectivity assay for SENP protease inhibitor project, biochemical, luminescence, set 2 (AID 588599); assay type: functional
[19] = target: T4, Sentrin-specific protease 6 (Homo sapiens, UniProt Q9GZR1); assay: SAR Analysis of small molecule inhibitors of Sentrin-specific protease 6 (SENP6) using a Luminescent assay. [Related pubchem assays (depositor defined):AID2582, AID2599]; assay type: functional
T4 sequence (Q9GZR1 whole entry): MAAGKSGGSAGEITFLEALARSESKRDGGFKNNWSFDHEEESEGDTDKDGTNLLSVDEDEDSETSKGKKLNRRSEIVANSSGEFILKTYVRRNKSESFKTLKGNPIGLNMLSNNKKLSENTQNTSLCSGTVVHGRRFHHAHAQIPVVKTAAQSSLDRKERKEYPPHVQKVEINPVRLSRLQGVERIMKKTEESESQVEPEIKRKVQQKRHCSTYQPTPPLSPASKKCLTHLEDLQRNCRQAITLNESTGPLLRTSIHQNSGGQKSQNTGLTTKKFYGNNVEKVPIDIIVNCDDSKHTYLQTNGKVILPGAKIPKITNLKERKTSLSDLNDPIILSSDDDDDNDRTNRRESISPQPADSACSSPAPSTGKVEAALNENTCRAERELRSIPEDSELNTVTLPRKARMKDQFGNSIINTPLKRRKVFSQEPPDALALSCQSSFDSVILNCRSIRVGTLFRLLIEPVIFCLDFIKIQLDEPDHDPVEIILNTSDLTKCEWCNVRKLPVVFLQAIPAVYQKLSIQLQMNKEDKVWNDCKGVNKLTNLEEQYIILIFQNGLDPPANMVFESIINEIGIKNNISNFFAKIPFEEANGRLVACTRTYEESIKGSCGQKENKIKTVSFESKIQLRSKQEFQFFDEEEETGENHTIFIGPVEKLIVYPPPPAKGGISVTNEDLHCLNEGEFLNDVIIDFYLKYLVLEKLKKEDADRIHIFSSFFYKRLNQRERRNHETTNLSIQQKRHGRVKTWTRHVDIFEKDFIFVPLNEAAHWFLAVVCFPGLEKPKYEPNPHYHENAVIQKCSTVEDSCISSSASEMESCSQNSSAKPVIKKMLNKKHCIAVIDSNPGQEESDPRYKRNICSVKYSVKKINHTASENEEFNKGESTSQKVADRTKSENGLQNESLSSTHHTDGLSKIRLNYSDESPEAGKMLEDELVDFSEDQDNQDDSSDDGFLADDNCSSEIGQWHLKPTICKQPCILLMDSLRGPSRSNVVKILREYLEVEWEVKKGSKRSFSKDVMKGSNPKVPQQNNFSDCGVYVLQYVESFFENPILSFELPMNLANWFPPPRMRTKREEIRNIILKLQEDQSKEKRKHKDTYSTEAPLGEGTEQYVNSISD

[20] = target: T4, Sentrin-specific protease 6; assay: SENP6 protease inhibitors, SAR follow-up, biochemical, luminescence, set 2 (AID 588598); assay type: functional
BJ [21] = assay: cytotoxicity toward BJ-TERT fibroblasts, dose response, cell-based, RAS-independent, luminescence (AID 1933); assay type: functional; conditions: Homo sapiens
BJ [22] = assay: cytotoxicity toward BJ-TERT-LT-ST fibroblasts, dose response, cell-based, RAS-independent, luminescence (AID 1935); assay type: functional; conditions: Homo sapiens;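 note: BJ fibroblasts immortalized with TERT plus LT and ST oncogenes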
[23] = AlphaScreen signal interference compounds, dose response, artefact control for ARNT-TACC3 interaction inhibitor project, biochemical, luminescence, cherry-pick (AID 651705); assay type: functional;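 note: AlphaScreen bead proximity signal that flags compounds interfering with the detection technology; potency reflects signal decrease which marks the compound as an assay artifact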
Insulin-degrading enzyme [24] = target: T5, Insulin-degrading enzyme (Homo sapiens, UniProt P14735); assay: activators of endogenous IDE in HEK cells, dose response, cell-based, fluorescence polarization (AID 588439); assay type: functional
[25] = cytotoxicity toward DRD oncogenic fibroblasts, dose response, cell-based, non-viral oncogenic, luminescence (AID 1934); assay type: functional; conditions: Homo sapiens
Insulin-degrading enzyme [26] = target: T5, Insulin-degrading enzyme; assay: activators of recombinant IDE enzyme, dose response, counter-screen for IDE activator project, biochemical, fluorescence polarization (AID 588681)
HEK293 [27] = assay: HEK cell cytotoxicity by LDH release, dose response, cytotoxicity control for IDE activator project, fluorescence, HEK cells (AID 588440); assay type: functional, cell-based; conditions: Homo sapiens;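 note: cytotoxicity by LDH release measuring loss of membrane integrity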
BJ [28] = assay: cells; assay type: functional, cell-based; conditions: Homo sapiens
HEK293 [29] = assay: optical interference in Abeta FP readout, dose response, artefact control for IDE activator project, biochemical, fluorescence polarization (AID 588442); assay type: functional, cell-based; conditions: Homo sapiens
[30] = cytotoxicity toward NIH3T3 fibroblasts, dose response, counter-screen, cell-based, ATP luminescence, mouse fibroblasts (AID 2010); assay type: functional;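 note: cells exposed to compound for about 90 hours before reading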
Lethal factor = Lethal factor (Bacillus anthracis, UniProt P15917); assay: High-throughput multiplex microsphere dose response for inhibitors of toxin protease, specifically Lethal Factor protease, compounds from Cherry Pick 02.; assay type: functional; conditions: read-out: EC50_MICROM
[31] = target: Botulinum neurotoxin type A (Clostridium botulinum (strain Hall / ATCC 3502 / NCTC 13319 / Type A), UniProt P0DPI1); assay: High-throughput multiplex microsphere dose response for inhibitors of toxin protease, specifically Botulinum neurotoxin light chain A protease, compounds from Cherry Pick 02.; assay type: functional; conditions: read-out: EC50_MICROM
[32] = inhibitors of intracellular T. cruzi replication, confirmation, NIH3T3 host cells, beta-gal luminescence (AID 2044); assay type: functional, cell-based;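 note: intracellular parasites grown in NIH/3T3 mouse fibroblasts as host cells; luminescent beta-galactosidase reporter signal from transgenic T. cruzi replicating inside host cells; inhibitors lower the luminescence signal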
[33] = target: Botulinum neurotoxin type F (Clostridium botulinum, UniProt P30996); assay: High-throughput multiplex microsphere dose response for inhibitors of toxin protease, specifically Botulinum neurotoxin light chain F protease, compounds from Cherry Pick 02.; assay type: functional; conditions: read-out: EC50_MICROM
[34] = target: T6, Protein disulfide-isomerase (Homo sapiens, UniProt P07237); assay: PDI inhibitors, insulin aggregation turbidity, dose response, biochemical, absorbance, cherry-picked samples (AID 602350); assay type: functional
[35] = target: T6, Protein disulfide-isomerase; assay: PDI inhibitors, insulin turbidity readout, dose response, biochemical, absorbance, cherry-picked samples, set 2 (AID 624274); assay type: functional

T6 sequence (P07237 whole entry): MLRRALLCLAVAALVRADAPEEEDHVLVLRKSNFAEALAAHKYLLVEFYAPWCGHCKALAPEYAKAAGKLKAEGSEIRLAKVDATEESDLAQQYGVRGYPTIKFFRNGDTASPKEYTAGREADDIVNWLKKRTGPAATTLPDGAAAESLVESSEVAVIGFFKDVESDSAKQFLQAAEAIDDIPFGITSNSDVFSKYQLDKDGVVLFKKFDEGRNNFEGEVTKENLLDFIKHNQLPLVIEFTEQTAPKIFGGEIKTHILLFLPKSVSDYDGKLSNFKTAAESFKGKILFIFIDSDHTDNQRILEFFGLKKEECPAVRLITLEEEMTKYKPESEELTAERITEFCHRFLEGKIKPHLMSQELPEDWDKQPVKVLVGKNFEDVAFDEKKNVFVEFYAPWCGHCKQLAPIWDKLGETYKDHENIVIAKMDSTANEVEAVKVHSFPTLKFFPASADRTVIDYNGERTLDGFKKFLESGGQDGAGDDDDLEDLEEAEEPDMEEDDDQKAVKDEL
T5 sequence (P14735 whole entry): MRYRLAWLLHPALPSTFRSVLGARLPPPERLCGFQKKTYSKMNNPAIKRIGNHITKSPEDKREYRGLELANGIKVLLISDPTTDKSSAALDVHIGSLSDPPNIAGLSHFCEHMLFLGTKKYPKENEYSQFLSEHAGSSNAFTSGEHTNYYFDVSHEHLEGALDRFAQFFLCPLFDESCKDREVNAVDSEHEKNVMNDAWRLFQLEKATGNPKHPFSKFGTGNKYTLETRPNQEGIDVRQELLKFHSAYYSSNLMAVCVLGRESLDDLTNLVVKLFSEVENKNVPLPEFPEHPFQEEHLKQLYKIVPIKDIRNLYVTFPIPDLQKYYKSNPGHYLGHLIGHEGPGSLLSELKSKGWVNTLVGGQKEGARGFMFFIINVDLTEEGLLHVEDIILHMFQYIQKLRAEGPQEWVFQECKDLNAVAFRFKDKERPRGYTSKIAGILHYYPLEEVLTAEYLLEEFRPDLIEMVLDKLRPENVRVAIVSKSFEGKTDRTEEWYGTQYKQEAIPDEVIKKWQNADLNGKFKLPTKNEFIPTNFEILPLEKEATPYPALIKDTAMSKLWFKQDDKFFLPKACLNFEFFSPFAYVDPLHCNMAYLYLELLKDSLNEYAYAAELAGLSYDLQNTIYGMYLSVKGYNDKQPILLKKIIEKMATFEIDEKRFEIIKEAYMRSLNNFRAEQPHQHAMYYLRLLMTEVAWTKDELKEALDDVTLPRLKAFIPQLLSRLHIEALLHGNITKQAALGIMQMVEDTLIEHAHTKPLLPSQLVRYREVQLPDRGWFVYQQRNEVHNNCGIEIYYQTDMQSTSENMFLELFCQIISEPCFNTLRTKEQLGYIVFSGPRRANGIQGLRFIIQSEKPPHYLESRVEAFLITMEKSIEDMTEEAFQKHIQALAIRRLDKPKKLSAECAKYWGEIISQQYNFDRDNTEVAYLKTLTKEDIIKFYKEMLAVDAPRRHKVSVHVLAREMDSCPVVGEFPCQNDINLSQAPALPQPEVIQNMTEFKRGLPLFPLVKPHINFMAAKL
Sequence of Interleukin-1 receptor-associated kinase 4 (Q9NWZ3 whole entry): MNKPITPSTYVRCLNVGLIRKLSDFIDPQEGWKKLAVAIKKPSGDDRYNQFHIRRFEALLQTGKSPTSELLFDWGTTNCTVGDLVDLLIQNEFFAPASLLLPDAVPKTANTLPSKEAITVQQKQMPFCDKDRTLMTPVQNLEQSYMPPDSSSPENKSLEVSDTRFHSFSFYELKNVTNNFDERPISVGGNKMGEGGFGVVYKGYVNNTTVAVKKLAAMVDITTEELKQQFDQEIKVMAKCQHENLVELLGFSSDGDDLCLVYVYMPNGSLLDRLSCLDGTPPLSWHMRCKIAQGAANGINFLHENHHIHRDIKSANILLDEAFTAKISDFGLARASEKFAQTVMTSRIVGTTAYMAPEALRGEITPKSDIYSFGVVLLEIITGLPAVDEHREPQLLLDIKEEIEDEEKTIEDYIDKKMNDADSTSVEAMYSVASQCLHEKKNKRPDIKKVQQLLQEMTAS
Sequence of Serine/threonine-protein kinase pim-1 (P11309 whole entry): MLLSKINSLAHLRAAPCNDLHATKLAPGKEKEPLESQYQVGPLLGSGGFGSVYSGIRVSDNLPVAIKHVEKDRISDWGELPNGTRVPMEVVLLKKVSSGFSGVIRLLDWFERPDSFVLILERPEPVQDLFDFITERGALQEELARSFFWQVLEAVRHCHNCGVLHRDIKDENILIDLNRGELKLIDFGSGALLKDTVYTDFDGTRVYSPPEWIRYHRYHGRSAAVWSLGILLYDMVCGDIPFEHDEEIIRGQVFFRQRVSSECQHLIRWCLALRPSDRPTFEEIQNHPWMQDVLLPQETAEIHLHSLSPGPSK
Sequence of DNA dC->dU-editing enzyme APOBEC-3G (Q9HC16 whole entry): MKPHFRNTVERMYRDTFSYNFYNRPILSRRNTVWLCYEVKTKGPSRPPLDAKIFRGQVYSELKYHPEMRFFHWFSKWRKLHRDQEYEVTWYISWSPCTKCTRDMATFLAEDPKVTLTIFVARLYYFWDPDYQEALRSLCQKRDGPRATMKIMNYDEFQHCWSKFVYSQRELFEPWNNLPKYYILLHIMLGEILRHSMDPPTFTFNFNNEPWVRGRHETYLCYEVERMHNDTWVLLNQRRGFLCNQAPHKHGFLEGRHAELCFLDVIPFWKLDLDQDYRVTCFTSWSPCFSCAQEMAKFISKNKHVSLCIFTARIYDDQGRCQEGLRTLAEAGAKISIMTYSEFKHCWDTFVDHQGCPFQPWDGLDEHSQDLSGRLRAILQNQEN
Sequence of Glycogen synthase kinase-3 beta (P49841 whole entry): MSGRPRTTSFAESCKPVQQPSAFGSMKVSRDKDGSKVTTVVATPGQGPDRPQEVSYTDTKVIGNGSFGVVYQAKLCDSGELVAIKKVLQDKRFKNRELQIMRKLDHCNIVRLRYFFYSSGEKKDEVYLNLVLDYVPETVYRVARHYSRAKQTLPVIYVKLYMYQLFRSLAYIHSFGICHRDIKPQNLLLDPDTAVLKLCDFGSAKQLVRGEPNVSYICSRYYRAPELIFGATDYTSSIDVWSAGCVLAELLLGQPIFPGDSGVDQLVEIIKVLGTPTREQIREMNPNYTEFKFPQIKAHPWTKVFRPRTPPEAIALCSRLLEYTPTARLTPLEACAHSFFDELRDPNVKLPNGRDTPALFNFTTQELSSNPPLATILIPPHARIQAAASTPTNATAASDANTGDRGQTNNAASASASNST
Sequence of Serine/threonine-protein kinase Chk1 (O14757 whole entry): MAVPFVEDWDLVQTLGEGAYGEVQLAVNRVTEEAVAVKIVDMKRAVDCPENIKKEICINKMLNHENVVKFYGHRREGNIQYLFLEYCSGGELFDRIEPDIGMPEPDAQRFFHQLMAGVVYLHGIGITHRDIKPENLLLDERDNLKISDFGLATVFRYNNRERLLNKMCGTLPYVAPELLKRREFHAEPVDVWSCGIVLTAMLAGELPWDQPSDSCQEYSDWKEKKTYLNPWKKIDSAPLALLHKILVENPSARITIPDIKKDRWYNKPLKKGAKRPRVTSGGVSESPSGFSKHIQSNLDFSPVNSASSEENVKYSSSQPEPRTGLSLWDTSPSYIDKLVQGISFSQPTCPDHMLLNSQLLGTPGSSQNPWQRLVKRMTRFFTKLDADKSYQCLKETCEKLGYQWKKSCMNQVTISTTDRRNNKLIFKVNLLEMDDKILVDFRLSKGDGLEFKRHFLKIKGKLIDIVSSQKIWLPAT
Sequence of Lethal factor (P15917 whole entry): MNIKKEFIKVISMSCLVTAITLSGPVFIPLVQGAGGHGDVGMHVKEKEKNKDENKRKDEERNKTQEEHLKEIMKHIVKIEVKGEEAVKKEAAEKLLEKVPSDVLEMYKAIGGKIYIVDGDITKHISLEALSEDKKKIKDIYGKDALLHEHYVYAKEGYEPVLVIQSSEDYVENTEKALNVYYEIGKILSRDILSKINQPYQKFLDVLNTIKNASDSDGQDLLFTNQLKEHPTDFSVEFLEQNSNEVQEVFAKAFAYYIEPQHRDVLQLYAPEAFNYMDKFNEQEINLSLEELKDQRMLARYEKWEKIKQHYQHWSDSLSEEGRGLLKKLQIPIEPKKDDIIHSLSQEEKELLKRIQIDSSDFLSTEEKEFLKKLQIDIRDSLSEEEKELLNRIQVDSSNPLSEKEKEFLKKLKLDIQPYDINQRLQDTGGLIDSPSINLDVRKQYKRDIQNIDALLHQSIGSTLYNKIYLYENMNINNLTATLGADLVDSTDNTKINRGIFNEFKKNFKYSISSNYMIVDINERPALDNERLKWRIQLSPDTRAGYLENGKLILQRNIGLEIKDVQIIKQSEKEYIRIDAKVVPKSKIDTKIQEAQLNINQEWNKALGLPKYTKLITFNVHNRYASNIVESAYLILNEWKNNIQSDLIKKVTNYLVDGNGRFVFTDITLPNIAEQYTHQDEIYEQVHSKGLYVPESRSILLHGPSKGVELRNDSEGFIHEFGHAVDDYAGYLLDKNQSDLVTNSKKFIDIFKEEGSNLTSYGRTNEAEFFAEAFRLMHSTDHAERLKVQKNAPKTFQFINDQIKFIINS
Sequence of Aurora kinase A (O14965 whole entry): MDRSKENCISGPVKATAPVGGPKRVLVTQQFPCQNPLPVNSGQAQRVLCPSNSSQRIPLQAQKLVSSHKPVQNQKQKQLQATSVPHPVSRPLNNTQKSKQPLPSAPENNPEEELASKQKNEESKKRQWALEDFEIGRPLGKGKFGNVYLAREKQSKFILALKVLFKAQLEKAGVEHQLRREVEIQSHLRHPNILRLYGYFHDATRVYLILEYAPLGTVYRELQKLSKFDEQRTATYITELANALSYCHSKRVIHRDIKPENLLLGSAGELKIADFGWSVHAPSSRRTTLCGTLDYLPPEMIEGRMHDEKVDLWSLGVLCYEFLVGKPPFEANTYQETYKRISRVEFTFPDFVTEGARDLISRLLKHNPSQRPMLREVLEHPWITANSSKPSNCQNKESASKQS
Sequence of DNA dC->dU-editing enzyme APOBEC-3A (P31941 whole entry): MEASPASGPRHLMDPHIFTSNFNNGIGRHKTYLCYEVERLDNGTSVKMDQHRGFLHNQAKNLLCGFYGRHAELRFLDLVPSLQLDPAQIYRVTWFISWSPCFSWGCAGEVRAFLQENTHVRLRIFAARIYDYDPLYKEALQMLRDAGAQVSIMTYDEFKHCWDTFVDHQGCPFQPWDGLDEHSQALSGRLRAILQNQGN

Fc1ccc(Nc2nc(Nc3ccc(Cl)c(Cl)c3)nc(N3CCOCC3)n2)cc1
IC50 [1]: > 99 µM (inactive) | IC50 [2]: > 99 µM (inactive)

Nc1n[nH]c2ccc(-c3nnn(Cc4ccccc4)c3C3CC3)cc12
Ki [3]: 0.0251 µM (active) | Ki [4]: 3.98 µM (active) | Ki [5]: > 10 µM (inactive) | Ki [6]: 0.631 µM (active) | Ki [7]: 0.0316 µM (active) | Ki [8]: 0.00794 µM (active) | Ki [9]: 0.398 µM (active) | Ki [10]: 2 µM (active) | Ki [11]: 1 µM (active)

CN(C)c1ncnc2[nH]ncc12
Ki [12]: 5.01 µM (active) | Ki (Aurora kinase A): 12.6 µM (active)

CCCCc1ccc2nc(NC(=O)c3cc(C)cs3)sc2c1
IC50 [13]: > 99 µM (inactive) | IC50 [14]: 8.25 µM (active) | IC50 [15]: 29.4 µM (active) | IC50 (Caspase-3 [16]): 51 µM (active) | IC50 [17]: 6.4 µM (active) | IC50 (Caspase-3 [18]): 68.4 µM (active) | IC50 [19]: > 99 µM (inactive) | IC50 [20]: 8.58 µM (active)

CCN(CC)c1ccc(/C=N/N=C(N)N)c(O)c1
EC50 (BJ [21]): 1.47 µM (active) | EC50 (BJ [22]): 1.51 µM (inconclusive) | AC50 [23]: 115 µM (active) | EC50 (Insulin-degrading enzyme [24]): > 54.7 µM (inactive) | EC50 [25]: 1.19 µM (active) | EC50 (Insulin-degrading enzyme [26]): > 54.7 µM (inactive) | IC50 (HEK293 [27]): > 89.2 µM (inactive) | EC50 (BJ [28]): 2.16 µM (active) | EC50 (HEK293 [29]): > 54.7 µM (inactive)

Cc1cc2ccccc2n1CCNC(=O)COc1ccccc1
EC50 [30]: > 30 µM (not active) | EC50 (Lethal factor): 1.4 µM (active) | EC50 [31]: 4.9 µM (active) | EC50 [32]: 1.16 µM (active) | EC50 [33]: > 20 µM (inactive)

O=C1NC(Cc2ccc(O)cc2)c2nc3ccccc3c(=O)n2-c2ncccc21 (configuration not stated)
AC50 [34]: < 0.009 µM (active) | AC50 [35]: 0.009 µM (active)

From ChEMBL document CHEMBL1201862, “PubChem BioAssay data set” (2004)
